Among the test systems are ACHN; CCRF-CEM; HCT-116; HOP-62; LOX IMVI; M14; MOLT-4; Malme-3M; NCI-H226; OVCAR-3; OVCAR-4; OVCAR-8; SK-OV-3; SNB-19; SR; SW-620; UACC-62; UACC-257; MDA-MB-231.
Holding throughout (experiment): inhibition of tumour cell growth, NCI panel, 48 h

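Following 48 hours of exposure in 96-well plates, responses at five concentrations were used to interpolate endpoints linearly. Abbreviation: GI50, concentration required for 50% inhibition of growth.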 The source made the active and inactive calls. Rule as the data show it: active = GI50 up to about 1.1 µM and inactive = higher.

Consider `C=C(C)C(=O)OC1C/C(CO)=C\C(O)C/C(C)=C/C2OC(=O)C(=C)C21` (stereo not given), for which the GI50 in the assay with ACHN is 21.3 µM (inactive); with CCRF-CEM, 8.65 µM (inactive); in the assay on HCT-116, 17.5 µM (inactive); in the assay on HOP-62, > 100 µM (inactive); in the assay on LOX IMVI it was 18.5 µM (inactive); in the assay on M14, 17.7 µM (inactive). The GI50 is 21.3 µM (inactive) in the assay with MOLT-4; 20.6 µM (inactive) with Malme-3M; 27.8 µM (inactive) with NCI-H226; 25.1 µM (inactive) with OVCAR-3; 25.9 µM (inactive) with OVCAR-4; 20.3 µM (inactive) in the assay on OVCAR-8. The GI50 with SK-OV-3 was > 100 µM (inactive); in the assay with SNB-19, > 100 µM (inactive); with SR, 19.9 µM (inactive); in the assay on SW-620, 16.7 µM (inactive); with UACC-62, 19.9 µM (inactive).
`O=C1N[C@@H]2CCCC[C@@H]2C12CCCCC2`: the GI50 with ACHN, in the assay with CCRF-CEM, in the assay on HCT-116, in the assay with HOP-62, in the assay on LOX IMVI and in the assay on M14 was > 100 µM (inactive) in each case. In addition, the GI50 with MOLT-4, with Malme-3M, in the assay with NCI-H226, with OVCAR-3, in the assay with OVCAR-4 and in the assay on OVCAR-8 was > 100 µM (inactive) in each case. Besides, the GI50 with SK-OV-3, in the assay with SNB-19, in the assay with SR, in the assay with SW-620, in the assay with UACC-257 and in the assay with UACC-62 was > 100 µM (inactive) each time.
Consider `COC(=O)C1(O)c2ccccc2N=C2C(=O)c3ccccc3N21` (stereo not given) [METHYLISATOID], for which the GI50 with ACHN was > 100 µM (inactive); with CCRF-CEM it was > 100 µM (inactive); in the assay on HCT-116, > 100 µM (inactive); in the assay on HOP-62, > 100 µM (inactive); in the assay on LOX IMVI, 59.7 µM (inactive); in the assay on MDA-MB-231, 41.6 µM (inactive). Moreover, the GI50 was > 100 µM (inactive) in the assay on MOLT-4; 51.8 µM (inactive) with Malme-3M; > 100 µM (inactive) with NCI-H226; 45.3 µM (inactive) in the assay on OVCAR-3; > 100 µM (inactive) with OVCAR-4; > 100 µM (inactive) in the assay with OVCAR-8. Besides, the values for the GI50 in the assay with SR, with SW-620 and with UACC-257 were > 100 µM (inactive), > 100 µM (inactive) and 23.8 µM (inactive), respectively.
Take `COc1ccccc1NC(=O)CSC(N)=O`: the GI50 with ACHN was 42.3 µM (inactive); with CCRF-CEM it was 12.9 µM (inactive); with HCT-116, 18.8 µM (inactive); with HOP-62, 24.7 µM (inactive); in the assay on LOX IMVI, 36.4 µM (inactive); in the assay with M14 it was 45.4 µM (inactive). Also, the GI50 in the assay with Malme-3M was 43 µM (inactive); with NCI-H226, 39.2 µM (inactive); in the assay with OVCAR-3, 57.8 µM (inactive); with OVCAR-4, > 100 µM (inactive); in the assay with OVCAR-8, 68.2 µM (inactive); in the assay with SK-OV-3, > 100 µM (inactive). For the same compound, the GI50 is > 100 µM (inactive) in the assay with SNB-19; 25.8 µM (inactive) in the assay with SR; 32.2 µM (inactive) in the assay on SW-620; 62.2 µM (inactive) in the assay with UACC-257; 25.8 µM (inactive) in the assay with UACC-62.
Take `COc1ccccc1/C=C1\SC(=S)N(/C=C2\C(=O)Oc3ccccc3C2=O)C1=O`: the GI50 in the assay on ACHN was 47.5 µM (inactive); in the assay on CCRF-CEM it was 36.2 µM (inactive); in the assay with HCT-116 it was 34.4 µM (inactive); with LOX IMVI it was 34.9 µM (inactive); in the assay with M14, 36.2 µM (inactive); in the assay on MDA-MB-231 it was 23 µM (inactive). The GI50 with MOLT-4 was 33.9 µM (inactive); in the assay on Malme-3M, 23.2 µM (inactive); with NCI-H226, 35.3 µM (inactive); in the assay on OVCAR-3 it was 19.8 µM (inactive); in the assay with OVCAR-4 it was 33.2 µM (inactive); in the assay on OVCAR-8 it was 28.8 µM (inactive). Further, the GI50 is 23 µM (inactive) with SK-OV-3; 32.7 µM (inactive) with SNB-19; 43.2 µM (inactive) in the assay with SW-620; 22.9 µM (inactive) in the assay on UACC-257; 23.8 µM (inactive) in the assay on UACC-62.
With `Cc1oc2c(C)c3oc(=O)cc(C)c3cc2c1CN1C(=O)C2OCCOCCOCCOCCOCCO[C@H]2C1=O` (stereo not given in full), the GI50 in the assay on ACHN, with CCRF-CEM, in the assay on HCT-116, with HOP-62, in the assay with LOX IMVI and in the assay on M14 was > 100 µM (inactive) throughout. Further, the GI50 with MOLT-4, with Malme-3M, in the assay with NCI-H226, with OVCAR-3, with OVCAR-4 and in the assay on OVCAR-8 was > 100 µM (inactive) throughout. Besides, the GI50 in the assay on SK-OV-3, in the assay with SNB-19, in the assay with SR, in the assay on SW-620, in the assay with UACC-257 and in the assay with UACC-62 was > 100 µM (inactive) each time.
For `C/C(Cc1ccc2c(c1)OCO2)=N\NC(=O)C(C)Sc1nnc(SC(C)C(=O)N/N=C(\C)Cc2ccc3c(c2)OCO3)s1` (stereo not given), the GI50 in the assay with ACHN was > 100 µM (inactive); in the assay with CCRF-CEM, 66.2 µM (inactive); in the assay with HCT-116, > 100 µM (inactive); in the assay with HOP-62, > 100 µM (inactive); in the assay with LOX IMVI, > 100 µM (inactive); with M14, > 100 µM (inactive). Besides, the GI50 in the assay on MDA-MB-231 is 84.7 µM (inactive); with MOLT-4, 27.7 µM (inactive); in the assay with Malme-3M, > 100 µM (inactive); in the assay on NCI-H226, > 100 µM (inactive); in the assay on OVCAR-3 it was > 100 µM (inactive); in the assay on OVCAR-4, > 100 µM (inactive). Also, the GI50 in the assay on OVCAR-8, in the assay on SK-OV-3, in the assay with SNB-19, with SW-620, in the assay with UACC-257 and with UACC-62 was > 100 µM (inactive) each time.
For the compound `CC#N.O[C@@H]1CCCC[C@H]1O.O[C@@H]1CCCC[C@H]1O.[TeH2]`, the GI50 in the assay with ACHN was 46.3 µM (inactive); in the assay with CCRF-CEM it was 20.2 µM (inactive); with HCT-116, 13.4 µM (inactive); in the assay on HOP-62, 53.5 µM (inactive); in the assay on LOX IMVI, 9.57 µM (inactive); with M14 it was > 100 µM (inactive). Moreover, the GI50 is 27.4 µM (inactive) in the assay on MOLT-4; > 100 µM (inactive) in the assay on Malme-3M; 46.1 µM (inactive) in the assay on NCI-H226; 19.1 µM (inactive) with OVCAR-3; 61.8 µM (inactive) with OVCAR-4; 19 µM (inactive) in the assay on OVCAR-8. The GI50 in the assay on SK-OV-3 is > 100 µM (inactive); with SNB-19, 39.8 µM (inactive); with SR it was 24.8 µM (inactive); with SW-620 it was 16.7 µM (inactive); in the assay with UACC-257, > 100 µM (inactive); with UACC-62, 82.2 µM (inactive).
For the compound `C=C1CC=CC(C)(C)C1C/C=C(\C)C(O)CBr` (stereo not given), the GI50 in the assay on ACHN was 53.7 µM (inactive); with CCRF-CEM, 47.8 µM (inactive); in the assay on HCT-116, 18.7 µM (inactive); in the assay with HOP-62, > 100 µM (inactive); in the assay on LOX IMVI, 19.1 µM (inactive); in the assay with M14, 82.6 µM (inactive). In addition, the GI50 in the assay with MDA-MB-231 was > 100 µM (inactive); in the assay with MOLT-4 it was 21.9 µM (inactive); in the assay with NCI-H226 it was 37.5 µM (inactive); with OVCAR-4, 76 µM (inactive); with OVCAR-8, 29.4 µM (inactive); in the assay on SK-OV-3, > 100 µM (inactive). Moreover, the GI50 in the assay with SNB-19 was > 100 µM (inactive); in the assay with SR it was 28 µM (inactive); in the assay with SW-620, 33.1 µM (inactive); in the assay on UACC-257 it was 54.7 µM (inactive); in the assay on UACC-62 it was 53.7 µM (inactive).
`CCCc1nc(NC#N)nc(C(=O)NC23CC4CC(CC(C4)C2)C3)c1C`: the GI50 in the assay with ACHN, in the assay with CCRF-CEM, in the assay with HCT-116, in the assay with HOP-62, in the assay with LOX IMVI and in the assay with M14 was > 100 µM (inactive) in each case. In addition, the GI50 in the assay with MOLT-4, in the assay with Malme-3M, in the assay on NCI-H226, in the assay with OVCAR-3, in the assay on OVCAR-4 and in the assay with OVCAR-8 was > 100 µM (inactive) throughout. For the same compound, the GI50 with SK-OV-3, in the assay with SNB-19, in the assay on SR, in the assay on SW-620, in the assay with UACC-257 and with UACC-62 was > 100 µM (inactive) each time.
With `CCN(CC)c1ccc(/N=N\c2ccc(-c3nc4ccc[n+](C)c4s3)cc2)cc1`, the GI50 was 3.05 µM (inactive) in the assay on CCRF-CEM; 3.53 µM (inactive) in the assay with HCT-116; 17.3 µM (inactive) in the assay on HOP-62; 0.423 µM (active) in the assay with LOX IMVI; 13.2 µM (inactive) in the assay on M14; 2.84 µM (inactive) in the assay on MOLT-4. In addition, the GI50 in the assay on Malme-3M was 6.11 µM (inactive); in the assay with NCI-H226, 6.5 µM (inactive); in the assay with OVCAR-3, 3.53 µM (inactive); in the assay with OVCAR-4 it was 6.5 µM (inactive); with OVCAR-8, 8.57 µM (inactive); with SK-OV-3 it was 16.1 µM (inactive). Further, the GI50 with SNB-19 is 5.3 µM (inactive); in the assay on SR, 4.5 µM (inactive); in the assay on SW-620, 4.75 µM (inactive); in the assay on UACC-257, 5.01 µM (inactive); with UACC-62 it was 7.59 µM (inactive).

The record behind these values is ChEMBL document CHEMBL1201862, “PubChem BioAssay data set” (2004).
